Source: publication PMC11855207, “Synthesis and Evaluation of Aromatic A-Ring 23-Oxavitamin D3 Analogues as Hedgehog Pathway Inhibitors” (International Journal of Molecular Sciences, 2025)

Legend:
[1] = system: VDR signaling (Cyp24A1 mRNA) in C3H10T1/2 cells; experiment: Cyp24A1 mRNA up-regulation (qPCR) in C3H10T1/2 cells; assay type: cell-based, mouse; details: 24 h, relative to DMSO (set to 1.0); for fold induction at 5 µM: Mus musculus, C3H 10T1/2, 5 μM with OHCs 5 μM; for Cyp24A1 mRNA (fold up-regulation): 5 μM with OHCs 5 μM
Protocol: (§1) The VD3 analogues were initially assessed for their ability to inhibit the Hh signaling pathway by evaluating the effects on endogenous Gli1 mRNA levels at a single concentration (5 μM) co-administration of oxysterols (OHCs; 20(S)-hydroxycholesterol, 22(S)-hydroxycholesterol at 5 μM each) in C3H10T1/2 cells, an Hh-dependent mouse embryonic fibroblast (MEF) cell line. […] VD3 derivatives may retain some VDR agonistic activity, thereby compromising the selectivity of these compounds as Hh inhibitors. The selectivity profile of the analogues for Hh inhibition, compared to typical VDR activation, was assessed by measuring the ability to up-regulate Cyp24a1 mRNA levels in the same cellular system and by evaluating their binding to VDR using a fluorescence polarization-based competition assay (Table 1).
(§2) Mouse embryonic fibroblast cell line (C3H10T1/2, wild-type, VDR^−/−, SuFu^−/−), mouse keratinocyte cell line (ASZ001), and human embryonic kidney cell line (HEK293T) were purchased from China Center for Type Culture Collection (CCTCC; Wuhan, Hubei, China) and cultured under standard protocols. […] Therefore, they can be used to assess the inhibitory strength of the Hh signaling and the selectivity of the VDR signaling. VDR^−/− and SuFu^−/− C3H10T1/2 cells were used to study compounds selectivity for Hh and VDR signaling. If compounds regulate Hh signaling independently of VDR, their ability to down-regulate Gli1 mRNA expression should be abolished in SuFu^−/− C3H10T1/2 cells. […] The loss of Ptch in ASZ001 cells […], so down-regulating Gli1 reflects direct Smo inhibition by the compound. Comparing results from ASZ001 and C3H10T1/2 cells highlights the compound’s inhibition of the Hh signaling pathway.
(§3) RNA isolation in C3H10T1/2 cells was performed in 24-well plates (50,000 cells plated; TRIZOL Reagent); in ASZ001, cells were done in 35 mm dishes (300,000 cells plated; TRIZOL Reagent). cDNA synthesis was performed utilizing the SweScript All-in-One RT SuperMix Kit (Servicebio, Wuhan, China) per the manufacturer’s instructions on a BioRad S1000 Thermal Cycler (Hercules, CA, USA). qPCR (Hh signaling pathway and VDR) analysis of target genes was performed on Step OnePlus (ABI) using the Taqman Gene Expression Assays: mouse ActB (Mm00607939_s1), mouse GLI1 (Mm00494645_ml), mouse PTCH1(Mm00436026_m1), and mouse CYP24A1 (Mm00487244_ml). Relative gene expression levels were computed via the ΔΔCt method. ActinB mRNA expression levels of all samples were normalized to DMSO control ActinB mRNA levels (vehicle; set at 1.00). […] The mRNA expression levels from drug-treated samples were compared to OHCs levels (Gli1, PTCH) and DMSO control (Cyp24A1).

recombinant VDR = molecular target: T1, recombinant VDR (Homo sapiens, UniProt P11473); experiment: VDR binding, fluorescence polarization-based competition assay (PolarScreen VDR Competitor Assay Red); details: compounds evaluated at 100 μM
T1 construct: purchased Thermo Fisher Scientific
T1 sequence (P11473 1-427): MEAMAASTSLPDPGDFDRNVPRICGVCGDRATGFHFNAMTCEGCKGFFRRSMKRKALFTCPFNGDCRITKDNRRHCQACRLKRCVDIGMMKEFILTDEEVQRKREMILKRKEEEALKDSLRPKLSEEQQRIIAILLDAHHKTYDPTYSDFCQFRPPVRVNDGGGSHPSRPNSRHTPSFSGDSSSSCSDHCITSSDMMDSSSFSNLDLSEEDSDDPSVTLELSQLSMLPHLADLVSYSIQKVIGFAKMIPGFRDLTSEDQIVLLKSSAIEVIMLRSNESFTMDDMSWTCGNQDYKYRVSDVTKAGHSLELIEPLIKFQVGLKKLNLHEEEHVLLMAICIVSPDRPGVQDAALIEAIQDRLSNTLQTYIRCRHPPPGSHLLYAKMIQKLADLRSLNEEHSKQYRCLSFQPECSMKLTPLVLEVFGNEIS
Protocol: as §1
VDR binding assay was performed using a PolarScreen VDR Competitor Assay Red kit (Thermo Fisher Scientific, Carlsbad, CA, USA) per the manufacturer’s instructions. Compounds were evaluated at 100 μM in 2.5% final DMSO in triplicate. Calcitriol is utilized as a positive control for VDR binding.

[2] = system: Hh signaling pathway (Gli1 mRNA) in C3H10T1/2 cells; experiment: Gli1 mRNA down-regulation (qPCR) in OHC-stimulated C3H10T1/2 cells; assay type: cell-based, mouse; details: for mrna remaining at 5 µM / IC50: Mus musculus; for mrna remaining at 5 µM: C3H 10T1/2, 5 μM with OHCs 5 μM; for mrna remaining at 5 µM / Gli1 mRNA (%): 24 h, relative Gli1 mRNA levels compared to OHCs (set to 100%); for Gli1 mRNA (%): 5 μM with OHCs 5 μM; for IC50: C3H 10T1/2, mean ± SEM
Protocol: as §1, §2, §3

[3] = system: primary Ptch-CKO MB cells; experiment: Anti-proliferation (MTS) in primary Ptch-CKO MB cells; assay type: cell-based; details: Mus musculus, 48 h incubation, mean ± SEM
Protocol: Ptch-CKO MB cells, derived from a conditional Patched knockout mouse, lack Ptch-like ASZ001 cells. Consequently, the inhibitory effect of the compound on Ptch-CKO MB cells directly reflects its suppression of the canonical Hh signaling pathway. Cell viability was assessed by MTS proliferation assay kit (Promega, Madison, WI, USA) according to the manufacturer’s protocol. Culture conditions and experimental protocols to determine GI50 values in the primary murine Ptch-CKO MB cells were as previously described.

ASZ001 cells = experiment: Anti-proliferation (MTS) in ASZ001 cells; assay type: cell-based; details: Mus musculus, 48 h incubation, mean ± SEM
[4] = system: Hh signaling pathway (Ptch mRNA) in C3H10T1/2 cells; experiment: Ptch mRNA down-regulation (qPCR) in C3H10T1/2 cells; assay type: cell-based; details: Mus musculus, C3H 10T1/2; C3H10T1/2 cells; mean ± SEM; read-out: Ptch IC50
Protocol: (§4) RNA isolation in C3H10T1/2 cells was performed in 24-well plates (50,000 cells plated; TRIZOL Reagent); in ASZ001, cells were done in 35 mm dishes (300,000 cells plated; TRIZOL Reagent). cDNA synthesis was performed utilizing the SweScript All-in-One RT SuperMix Kit (Servicebio, Wuhan, China) per the manufacturer’s instructions on a BioRad S1000 Thermal Cycler (Hercules, CA, USA). qPCR (Hh signaling pathway and VDR) analysis of target genes was performed on Step OnePlus (ABI) using the Taqman Gene Expression Assays [18, 29]: mouse ActB (Mm00607939_s1), mouse GLI1 (Mm00494645_ml), mouse PTCH1(Mm00436026_m1), and mouse CYP24A1 (Mm00487244_ml). Relative gene expression levels were computed via the ΔΔCt method. ActinB mRNA expression levels of all samples were normalized to DMSO control ActinB mRNA levels (vehicle; set at 1.00). […] The mRNA expression levels from drug-treated samples were compared to OHCs levels (Gli1, PTCH) and DMSO control (Cyp24A1).

[5] = system: VDR signaling (Cyp24A1 mRNA) in ASZ001 cells; experiment: Cyp24A1 mRNA expression (qPCR) in ASZ001 cells; assay type: cell-based; details: Mus musculus; ASZ001 cells; 5 μM, 24 h; DMSO set to 1.0; read-out: Cyp24A1 mRNA levels relative to DMSO
Protocol: as §4

[6] = system: Hh signaling pathway (Gli1 mRNA) in ASZ001 cells; experiment: Gli1 mRNA down-regulation (qPCR) in ASZ001 cells; assay type: cell-based; details: Mus musculus; ASZ001 cells; mean ± SEM; read-out: Gli1 IC50
Protocol: Mouse embryonic fibroblast cell line (C3H10T1/2, wild-type, VDR^−/−, SuFu^−/−), mouse keratinocyte cell line (ASZ001), and human embryonic kidney cell line (HEK293T) were purchased from China Center for Type Culture Collection (CCTCC; Wuhan, Hubei, China) and cultured under standard protocols [16]. […] The loss of Ptch in ASZ001 cells prevents Smo inhibition, so down-regulating Gli1 reflects direct Smo inhibition by the compound.
as §4

Compound: COc1ccc(C(=O)O[C@H]2CCC[C@]3(C)[C@@H]([C@H](C)COCC(C)(C)O)CC[C@@H]23)cc1 [Compound 4c]
- fold induction at 5 µM [1]: 120 ± 18.6
- VDR Binding (recombinant VDR): >100 µM
- mrna remaining at 5 µM [2]: 76.5 ± 7.5%

Compound: C[C@H](COCC(C)(C)O)[C@H]1CC[C@H]2[C@@H](O)CCC[C@]12C [Compound 2b]
- Cyp24A1 mRNA (fold up-regulation) [1]: weak
- fold induction at 5 µM [1]: 76.8 ± 6.3
- VDR Binding (recombinant VDR): >100 µM
- Gli1 mRNA (%) [2]: comparable to that of VD3
- mrna remaining at 5 µM [2]: 42.7 ± 3.4%

Compound: C[C@H](COCC(C)(C)O)[C@H]1CC[C@H]2[C@@H](OC(=O)c3ccccc3)CCC[C@]12C [Compound 4a]
- fold induction at 5 µM [1]: 94.6 ± 12.7
- VDR Binding (recombinant VDR): >100 µM
- mrna remaining at 5 µM [2]: 43.8 ± 3.6%

Compound: C[C@H](COCC(C)(C)O)[C@H]1CC[C@H]2[C@@H](OC(=O)c3ccc(O)cc3)CCC[C@]12C [Compound 4j]
- fold induction at 5 µM [1]: 127 ± 20.5
- GI50 [3]: > 10 µM
- GI50 (ASZ001 cells): > 20 µM
- VDR Binding (recombinant VDR): >100 µM
- mrna remaining at 5 µM [2]: 4.6 ± 0.8%

Compound: CC(C)COC[C@@H](C)[C@H]1CC[C@H]2[C@@H](OC(=O)c3cc(N)cc(N)c3)CCC[C@]12C [Compound 3h]
- fold induction at 5 µM [1]: 6.7 ± 0.8
- GI50 [3]: > 10 µM
- IC50 [4]: 7.8 ± 0.6 µM
- GI50 (ASZ001 cells): > 20 µM
- VDR Binding (recombinant VDR): >100 µM
- fold induction at 5 µM [5]: 5.1 ± 0.3
- mrna remaining at 5 µM [2]: 5.6 ± 0.9%
- IC50 [2]: 3.2 ± 0.3 µM
- IC50 [6]: 4.7 ± 0.4 µM

Compound: C[C@H](COCC(C)(C)O)[C@H]1CC[C@H]2[C@@H](OC(=O)c3cccc(O)c3)CCC[C@]12C [Compound 4h]
- fold induction at 5 µM [1]: 87.4 ± 13.7
- GI50 [3]: > 10 µM
- IC50 [4]: 5.7 ± 0.5 µM
- GI50 (ASZ001 cells): > 20 µM
- VDR Binding (recombinant VDR): >100 µM
- fold induction at 5 µM [5]: 60.3 ± 6.4
- mrna remaining at 5 µM [2]: 3.8 ± 0.4%
- IC50 [2]: 2.8 ± 0.2 µM
- IC50 [6]: 4.1 ± 0.5 µM

Compound: C[C@H](COCC(C)(C)O)[C@H]1CC[C@H]2[C@@H](OC(=O)c3ccc(Cl)cc3)CCC[C@]12C [Compound 4e]
- fold induction at 5 µM [1]: 105 ± 21.4
- VDR Binding (recombinant VDR): >100 µM
- mrna remaining at 5 µM [2]: 26.1 ± 2.1%

Compound: CC(C)COC[C@@H](C)[C@H]1CC[C@H]2[C@@H](OC(=O)c3cc([N+](=O)[O-])cc([N+](=O)[O-])c3)CCC[C@]12C [Compound 3g]
- fold induction at 5 µM [1]: 9.8 ± 1.4
- VDR Binding (recombinant VDR): >100 µM
- mrna remaining at 5 µM [2]: 32.1 ± 2.4%

Compound: CC(C)COC[C@@H](C)[C@H]1CC[C@H]2[C@@H](O)CCC[C@]12C [Compound 2a]
- Cyp24A1 mRNA (fold up-regulation) [1]: weak
- fold induction at 5 µM [1]: 1.6 ± 0.3
- VDR Binding (recombinant VDR): >100 µM
- Gli1 mRNA (%) [2]: comparable to that of VD3
- mrna remaining at 5 µM [2]: 36.8 ± 3.6%

Compound: C[C@H](COCC(C)(C)O)[C@H]1CC[C@H]2[C@@H](OC(=O)c3cc([N+](=O)[O-])cc([N+](=O)[O-])c3)CCC[C@]12C [Compound 4f]
- fold induction at 5 µM [1]: 131 ± 19.7
- VDR Binding (recombinant VDR): >100 µM
- mrna remaining at 5 µM [2]: 30.7 ± 2.5%

Compound: CC(C)COC[C@@H](C)[C@H]1CC[C@H]2[C@@H](OC(=O)c3ccc(F)cc3)CCC[C@]12C [Compound 3f]
- fold induction at 5 µM [1]: 46.5 ± 3.4
- VDR Binding (recombinant VDR): >100 µM
- mrna remaining at 5 µM [2]: 45.4 ± 3.1%

Compound: COc1cccc(C(=O)O[C@H]2CCC[C@]3(C)[C@@H]([C@H](C)COCC(C)C)CC[C@@H]23)c1 [Compound 3d]
- fold induction at 5 µM [1]: 13.5 ± 1.1
- VDR Binding (recombinant VDR): >100 µM
- mrna remaining at 5 µM [2]: 102 ± 8.4%

Compound: COc1ccc(C(=O)O[C@H]2CCC[C@]3(C)[C@@H]([C@H](C)COCC(C)C)CC[C@@H]23)cc1 [Compound 3c]
- fold induction at 5 µM [1]: 36.7 ± 2.9
- VDR Binding (recombinant VDR): >100 µM
- mrna remaining at 5 µM [2]: 89.6 ± 4.3%

Compound: CC(C)COC[C@@H](C)[C@H]1CC[C@H]2[C@@H](OC(=O)c3ccc([N+](=O)[O-])cc3)CCC[C@]12C [Compound 3b]
- fold induction at 5 µM [1]: 24.6 ± 2.1
- VDR Binding (recombinant VDR): >100 µM
- mrna remaining at 5 µM [2]: 74.2 ± 4.1%

Compound: CC(C)COC[C@@H](C)[C@H]1CC[C@H]2[C@@H](OC(=O)c3ccc(Cl)cc3)CCC[C@]12C [Compound 3e]
- fold induction at 5 µM [1]: 67.8 ± 4.8
- VDR Binding (recombinant VDR): >100 µM
- mrna remaining at 5 µM [2]: 23.5 ± 2.7%

Compound: CC(C)COC[C@@H](C)[C@H]1CC[C@H]2[C@@H](OC(=O)c3ccccc3)CCC[C@]12C [Compound 3a]
- fold induction at 5 µM [1]: 35.7 ± 2.6
- VDR Binding (recombinant VDR): >100 µM
- mrna remaining at 5 µM [2]: 56.8 ± 3.5%

Compound: COc1cccc(C(=O)O[C@H]2CCC[C@]3(C)[C@@H]([C@H](C)COCC(C)(C)O)CC[C@@H]23)c1 [Compound 4d]
- fold induction at 5 µM [1]: 86.8 ± 11.3
- VDR Binding (recombinant VDR): >100 µM
- mrna remaining at 5 µM [2]: 62.3 ± 4.8%

Compound: C[C@H](COCC(C)(C)O)[C@H]1CC[C@H]2[C@@H](OC(=O)c3ccc([N+](=O)[O-])cc3)CCC[C@]12C [Compound 4b]
- fold induction at 5 µM [1]: 92.7 ± 15.9
- VDR Binding (recombinant VDR): >100 µM
- mrna remaining at 5 µM [2]: 54.6 ± 3.8%
